Results reported in US7888329B2, “Substituted aryl piperidinylalkynyladenosines as A2AR agonists” (PGxHealth, LLC, priority 2006, dated 2011).
Read-outs that look alike come from different tables or passages of the source.

Experiments:
human A1 AR = biological target: T1, human A1 AR (Homo sapiens, UniProt P30542); assay: Radioligand competition binding with 125I-ABA, membranes of CHO K1 cells stably expressing the receptor; conditions: Ki derived from IC50, class symbols
T1 construct: expressed in transfected cells; membranes
T1 sequence (P30542 1-326): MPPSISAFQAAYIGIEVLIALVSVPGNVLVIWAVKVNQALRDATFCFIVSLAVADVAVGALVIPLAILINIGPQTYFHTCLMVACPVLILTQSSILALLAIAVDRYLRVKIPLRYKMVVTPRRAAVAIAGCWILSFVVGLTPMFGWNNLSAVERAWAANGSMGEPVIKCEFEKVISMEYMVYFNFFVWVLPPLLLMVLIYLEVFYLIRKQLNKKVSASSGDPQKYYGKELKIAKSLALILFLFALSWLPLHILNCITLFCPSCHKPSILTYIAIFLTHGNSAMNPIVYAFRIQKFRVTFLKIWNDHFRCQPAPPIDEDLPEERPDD

[1] = biological target: T2, recombinant human A2A receptors (Homo sapiens, UniProt P29274); assay: Radioligand competition binding with 125I-APE or 125I-ZM241385, Sf9 cell membranes; conditions: 125I-APE or 125I-ZM241385, Sf9 membranes; class symbols
T2 construct: expressed in transfected cells; host or cells: Sf9 insect cells infected with virus; membranes
T2 sequence (P29274 whole entry): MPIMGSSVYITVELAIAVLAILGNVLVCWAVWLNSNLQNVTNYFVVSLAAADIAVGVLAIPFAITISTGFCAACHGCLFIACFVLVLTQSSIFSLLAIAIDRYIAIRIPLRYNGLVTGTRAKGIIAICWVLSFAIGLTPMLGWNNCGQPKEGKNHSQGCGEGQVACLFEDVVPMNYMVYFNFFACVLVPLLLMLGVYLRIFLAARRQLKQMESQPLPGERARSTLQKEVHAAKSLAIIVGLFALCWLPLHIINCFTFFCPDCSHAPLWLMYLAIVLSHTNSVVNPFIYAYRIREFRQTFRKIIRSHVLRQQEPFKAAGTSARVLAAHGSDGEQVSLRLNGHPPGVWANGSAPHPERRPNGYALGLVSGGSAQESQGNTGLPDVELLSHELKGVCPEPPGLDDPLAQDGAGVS
Protocol: Cell culture and membrane preparation. Sf9 cells were cultured in Grace's medium supplemented with 10% fetal bovine serum, 2.5 μg/ml amphotericin B and 50 μg/ml gentamycin in an atmosphere of 50% N2/50% O2. Viral infection was performed at a density of 2.5×10^6 cells/mL with a multiplicity of infection of two for each virus used. Infected cells were harvested 3 days post-infection and washed twice in insect PBS (PBS pH 6.3). Cells were then resuspended in lysis buffer (20 mM HEPES pH 7.5, 150 mM NaCl, 3 mM MgCl2, 1 mM α-mercaptoethanol (BME), 5 μg/mL leupeptin, 5 μg/mL pepstatin A, 1 μg/mL aprotinin, and 0.1 mM PMSF) and snap frozen for storage at −80° C. Cells were thawed on ice, brought to 30 mL total volume in lysis buffer, and burst by N2 cavitation (600 psi for 20 minutes). A low-speed centrifugation was performed to remove any unlysed cells (1000×g for 10 minutes), followed by a high-speed centrifugation (17,000×g for 30 minutes). The pellet from the final centrifugation was homogenized in buffer containing 20 mM HEPES pH 8, 1100 mM NaCl, 1% glycerol, 2 μg/mL leupeptin, 2 μg/mL pepstatin A, 2 μg/mL Aprotinin, 0.1 mM PMSF, and 10 μM GDP using a small glass homogenizer followed by passage through a 26 gauge needle. Membranes were aliquoted, snap frozen in liquid N2, and stored at −80° C.
Radioligand Binding Assays. […] Binding experiments were performed in triplicate with 5 μg (A2A) or 25 μg (A1 and A3) membrane protein in a total volume of 00.1 mL HE buffer (20 mM HEPES and 1 mM EDTA) with 1 U/mL adenosine deaminase and 5 mM MgCl2 with or without 50 μM GTPγS. Membranes were incubated with radioligands at room temperature for three hours (for agonists) or two hours (for antagonists) in Millipore Multiscreen® 96-well GF/C filter plates and assays were terminated by rapid filtration on a cell harvester (Brandel, Gaithersburg, Md.) followed by 4×150 μl washes over 30 seconds with ice cold 10 mM Tris-HCl, pH 7.4, 10 mM MgCl2. Nonspecific binding was measured in the presence of 50 μM NECA.

human A3 AR = biological target: T3, human A3 AR (Homo sapiens, UniProt P0DMS8); assay: Radioligand competition binding with 125I-ABA, membranes of HEK 293 cells stably expressing the receptor; conditions: Ki derived from IC50, class symbols
T3 construct: expressed in transfected cells; membranes
T3 sequence (P0DMS8 1-318): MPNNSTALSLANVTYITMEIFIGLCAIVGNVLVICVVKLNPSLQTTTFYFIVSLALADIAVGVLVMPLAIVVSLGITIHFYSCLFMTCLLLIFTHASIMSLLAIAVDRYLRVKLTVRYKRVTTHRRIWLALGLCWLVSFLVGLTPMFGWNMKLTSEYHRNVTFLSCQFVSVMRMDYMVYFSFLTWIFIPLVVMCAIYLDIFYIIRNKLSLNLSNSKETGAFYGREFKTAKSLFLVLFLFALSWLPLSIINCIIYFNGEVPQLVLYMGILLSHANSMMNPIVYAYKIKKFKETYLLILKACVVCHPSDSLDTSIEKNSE
Protocol: Cell culture and membrane preparation. Sf9 cells were cultured in Grace's medium supplemented with 10% fetal bovine serum, 2.5 μg/ml amphotericin B and 50 μg/ml gentamycin in an atmosphere of 50% N2/50% O2. Viral infection was performed at a density of 2.5×10^6 cells/mL with a multiplicity of infection of two for each virus used. Infected cells were harvested 3 days post-infection and washed twice in insect PBS (PBS pH 6.3). Cells were then resuspended in lysis buffer (20 mM HEPES pH 7.5, 150 mM NaCl, 3 mM MgCl2, 1 mM α-mercaptoethanol (BME), 5 μg/mL leupeptin, 5 μg/mL pepstatin A, 1 μg/mL aprotinin, and 0.1 mM PMSF) and snap frozen for storage at −80° C. Cells were thawed on ice, brought to 30 mL total volume in lysis buffer, and burst by N2 cavitation (600 psi for 20 minutes). A low-speed centrifugation was performed to remove any unlysed cells (1000×g for 10 minutes), followed by a high-speed centrifugation (17,000×g for 30 minutes). The pellet from the final centrifugation was homogenized in buffer containing 20 mM HEPES pH 8, 1100 mM NaCl, 1% glycerol, 2 μg/mL leupeptin, 2 μg/mL pepstatin A, 2 μg/mL Aprotinin, 0.1 mM PMSF, and 10 μM GDP using a small glass homogenizer followed by passage through a 26 gauge needle. Membranes were aliquoted, snap frozen in liquid N2, and stored at −80° C. Membranes from cells stably expressing the human A1 AR (CHO K1 cells) or A3 AR (HEK 293 cells) were prepared as described (Robeva et al., 1996).
Radioligand Binding Assays. Radioligand binding to recombinant human A2A receptors in Sf9 cell membranes was performed using either the radiolabeled agonist, ^125I-APE (Luthin et al., 1995) or the radiolabeled antagonist, ^125I-ZM241385 (^125I-ZM). To detect the high affinity, GTPγS-sensitive state of A1 and A3 AR, we used the agonist, ^125I-ABA (Linden et al., 1985; Linden et al., 1993). Binding experiments were performed in triplicate with 5 μg (A2A) or 25 μg (A1 and A3) membrane protein in a total volume of 00.1 mL HE buffer (20 mM HEPES and 1 mM EDTA) with 1 U/mL adenosine deaminase and 5 mM MgCl2 with or without 50 μM GTPγS. Membranes were incubated with radioligands at room temperature for three hours (for agonists) or two hours (for antagonists) in Millipore Multiscreen® 96-well GF/C filter plates and assays were terminated by rapid filtration on a cell harvester (Brandel, Gaithersburg, Md.) followed by 4×150 μl washes over 30 seconds with ice cold 10 mM Tris-HCl, pH 7.4, 10 mM MgCl2. Nonspecific binding was measured in the presence of 50 μM NECA. Competition binding assays were performed as described (Robeva et al., 1996) using 0.5-1 nM ^125I-APE, ^125I-ZM241385, or ^125I-ABA. […] The Ki values for competing compound binding to a single site were derived from IC50 values with correction for radioligand and competing compound depletion as described previously (Linden, 1982).

[2] = tested on: Purified human neutrophils; assay: Luminol enhanced chemiluminescence (neutrophil oxidative activity), fMLP stimulated; format: cell-based; conditions: Homo sapiens, Neutrophil
Text: Chemiluminescence Methods: Luminol enhanced chemiluminescence, a measure of neutrophil oxidative activity, is dependent upon both superoxide production and mobilization of the granule enzyme myeloperoxidase. The light is emitted from unstable high-energy oxygen species such as hypochlorous acid and singlet oxygen generated by activated neutrophils.
Purified human neutrophils (2×10^6/ml) suspended in Hanks balanced salt solution containing 0.1% human serum albumin (HA), adenosine deaminase (1 U/mL) and rolipram (100 nM) were incubated (37 C) in a water bath for 15 min with or without rhTNF (10 U/ml). Following incubation 100 µL aliquots of the PMN were transferred to wells (White walled clear bottom 96 well tissue culture plates Costar #3670; 2 wells/condition) containing […] and luminol (final concentration 100M) with or without adenosine agonist (final agonist concentrations 0.01-1000 nM). The plate was incubated 5 min (37 C) and then fMLP (50 l in HA; final concentration […]) was added to all wells.
Peak chemiluminescence was determined with a Victor 1420 Multilabel Counter in the chemiluminescence mode using the Wallac Workstation software. Data are presented as peak chemiluminescence as percent of activity in the absence of an adenosine agonist. The EC50 was determined using PRISM software. All compounds were tested with PMNs from three separate donors.

Structure (SMILES)	Ki (human A1 AR) [nM]	Ki [1] [nM]	Ki (human A3 AR) [nM]	EC50 ([2]; read-out: Functional) [nM]	EC50 ([2]; read-out: Functional (nM)) [nM]
CCNC(=O)[C@H]1O[C@@H](n2cnc3c(N)nc(C#CCC4CCN(C(=O)OCc5ccc([N+](=O)[O-])cc5)CC4)nc32)[C@@H](O)C1O (stereo partly drawn) [Compound 33, N-Ethyl 2-{3-[1-(4-nitrobenzyloxycarbonyl)-4-piperidinyl]-1-propyn-1-yl}adenosine-5′-uronamide]	< 100	< 1	< 10	< 10	
COC(=O)c1ccc(OC(=O)N2CCC(CC#Cc3nc(N)c4ncn([C@@H]5O[C@H](CO)[C@@H](O)[C@H]5O)c4n3)CC2)cc1 [Compound 13, 2-{3-[1-((4-Methoxycarbonylphenoxy)carbonyl)piperidin-4-yl]propyn-1-yl}adenosine]	< 100	< 1	< 100	< 10	
Nc1nc(C#CCC2CCN(C(=O)Oc3cccc([N+](=O)[O-])c3)CC2)nc2c1ncn2[C@@H]1O[C@H](C(=O)NC2CC2)C(O)[C@@H]1O (stereo partly drawn) [Compound 56, N-Cyclopropyl 2-{3-[1-(3-nitrophenoxycarbonyl)-4-piperidinyl]-1-propyn-1-yl}adenosine-5′-uronamide]	< 100	< 1	> 100	< 1	
CCNC(=O)[C@H]1O[C@@H](n2cnc3c(N)nc(C#CCC4CCN(C(=O)Oc5ccc([N+](=O)[O-])cc5)CC4)nc32)[C@@H](O)C1O (stereo partly drawn) [Compound 19, N-Ethyl 2-{3-[1-(4-nitrophenyloxycarbonyl)-4-piperidinyl]-1-propyn-1-yl}adenosine-5′-uronamide]	< 100	< 1	< 10	< 1	
Nc1nc(C#CCC2CCN(C(=O)Oc3ccc(Cl)c(Cl)c3)CC2)nc2c1ncn2[C@@H]1O[C@H](C(=O)NC2CC2)C(O)[C@@H]1O (stereo partly drawn) [Compound 51, N-Cyclopropyl 2-{3-[1-(3,4-chlorophenoxycarbonyl)-4-piperidinyl]-1-propyn-1-yl}adenosine-5′-uronamide]	< 100	< 1	< 100	< 1	
COc1ccc(OC(=O)N2CCC(CC#Cc3nc(N)c4ncn([C@@H]5O[C@H](CO)[C@@H](O)[C@H]5O)c4n3)CC2)cc1 [Compound 28, 2-{3-[1-((4-Methoxy)phenoxycarbanoyl)piperidin-4-yl]propyn-1-yl}adenosine]	< 100	< 1	< 100	< 10	
Nc1nc(C#CCC2CCN(C(=O)Oc3ccc(F)cc3)CC2)nc2c1ncn2[C@@H]1O[C@H](C(=O)NC2CC2)C(O)[C@@H]1O (stereo partly drawn) [Compound 8, N-Cyclopropyl 2-{3-[1-(4-fluorophenoxycarbonyl)-4-piperidinyl]-1-propyn-1-yl}adenosine-5′-uronamide]	< 100	< 1	< 100	< 1	
Nc1nc(C#CCC2CCN(C(=O)Oc3ccc(Cl)c(Cl)c3)CC2)nc2c1ncn2[C@@H]1O[C@H](CO)C(O)[C@@H]1O (stereo partly drawn) [Compound 55, 2-{3-[1-((3,4-Chloro)phenoxycarbanoyl)piperidin-4-yl]propyn-1-yl}adenosine]	< 100	< 1	< 10	< 10	
Nc1nc(C#CCC2CCN(C(=O)Oc3ccc(C(=O)O)cc3)CC2)nc2c1ncn2[C@@H]1O[C@H](C(=O)NC2CC2)C(O)[C@@H]1O (stereo partly drawn) [Compound 14, N-Cyclopropyl 2-{3-[1-(4-carboxyphenoxycarbonyl)-4-piperidinyl]-1-propyn-1-yl}adenosine-5′-uronamide]	> 100	< 10	> 100	< 100	
CCNC(=O)[C@H]1O[C@@H](n2cnc3c(N)nc(C#CCC4CCN(C(=O)Oc5ccccc5Cl)CC4)nc32)[C@@H](O)C1O (stereo partly drawn) [Compound 31, N-Ethyl 2-{3-[1-(2-chlorophenyloxycarbonyl)-4-piperidinyl]-1-propyn-1-yl}adenosine-5′-uronamide]	< 100	< 1	< 10	< 10	
Nc1nc(C#CCC2CCN(C(=O)Nc3cccc(Cl)c3)CC2)nc2c1ncn2[C@@H]1O[C@H](CO)C(O)[C@@H]1O (stereo partly drawn) [Compound 46]	< 100	< 10	< 100	< 100	
Nc1nc(CCCC2CCN(C(=O)Oc3ccccc3)CC2)nc2c1ncn2[C@@H]1O[C@H](C(=O)NC2CC2)C(O)[C@@H]1O (stereo partly drawn) [Compound 38]	> 100	< 100	> 100		< 100
